Experiment [1] concerns Human betaherpesvirus 5. Put plainly: Compound was evaluated for inhibitory activity against human cytomegalovirus (HCMV) protease. Format: functional.
The nature of experiment [2]: Compound was evaluated for inhibitory activity against herpes simplex type 2 protease (HSV-2 pr) at dose of 10 uM. The note with it: Human alphaherpesvirus 2.
Experiment [3] concerns Human betaherpesvirus 5. Put plainly: Compound was evaluated for inhibitory activity against human cytomegalovirus (HCMV) protease 10 uM. Format: functional.
Experiment [4] in a line: Compound was evaluated for inhibitory activity against elastase at dose of 100 uM.
Experiment [5] relates to Human betaherpesvirus 5. In words: Compound was evaluated for inhibitory activity against human cytomegalovirus (HCMV) protease at dose of 10 uM. Format: functional.
The nature of experiment [6]: Compound was evaluated for inhibitory activity against Chymotrypsinogen at dose of 22 uM.
Experiment [7] deals with Serine protease 1 (Homo sapiens) (UniProt P07477). Put plainly: Compound was evaluated for inhibitory activity against trypsin at dose of 100 uM.
Sequence of Serine protease 1 (Homo sapiens) (P07477 whole entry): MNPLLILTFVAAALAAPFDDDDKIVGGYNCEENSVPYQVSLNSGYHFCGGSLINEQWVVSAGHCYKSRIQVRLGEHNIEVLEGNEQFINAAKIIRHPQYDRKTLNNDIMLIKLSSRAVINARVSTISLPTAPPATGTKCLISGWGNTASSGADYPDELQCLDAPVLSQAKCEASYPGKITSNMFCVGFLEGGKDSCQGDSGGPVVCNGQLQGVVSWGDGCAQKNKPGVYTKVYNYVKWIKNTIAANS
Experiment [8] can be described thus: Compound was evaluated for inhibitory activity against Chymotrypsinogen at dose of 100 uM.

For `COc1ccc(S(=O)(=O)ON2C(=O)/C(=C/c3ccccc3)N=C2c2ccccc2)cc1`, half-maximal inhibition in the experiment with Human betaherpesvirus 5 [1] (IC50) required 2300 nM. In experiment [2], this compound registered an inhibition of 20%.
In the experiment on Human betaherpesvirus 5 [3], `O=C1OC(c2ccccc2)=NC12CC2` displayed an Inhibition of 16%. Further, the inhibition in experiment [2] is 71%.
In the case of `CS(=O)(=O)ON1C(=O)/C(=C/c2ccccc2)N=C1c1ccccc1`, in experiment [4], the inhibition was determined as 33%. This compound came in with an IC50 in the experiment with Human betaherpesvirus 5 [1] of 400 nM.
In the experiment on Human betaherpesvirus 5 [5], `CC(=O)ON1C(=O)/C(=C/c2ccccc2)N=C1c1ccccc1` gave an inhibition at 10 µM of 35%. Further, the inhibition in experiment [2] was 14%.
For the compound `O=C1OC(c2ccccc2)=N[C@@]12C[C@@H]2c1ccccc1`, the inhibition in experiment [6] was 92%; in experiment [4], 42%; in experiment [7], 63%. Half-maximal inhibition in the experiment on Human betaherpesvirus 5 [1] (IC50) was put at 1800 nM.
`CC(=O)Oc1ccc([C@H]2C[C@@]23N=C(c2ccccc2)OC3=O)cc1` registered an IC50 in the experiment on Human betaherpesvirus 5 [1] of 1100 nM.
As for `CC(=O)n1cc([C@H]2C[C@@]23N=C(c2ccccc2)OC3=O)c2ccccc21`, in the experiment on Human betaherpesvirus 5 [1], half-maximal inhibition (IC50) required 160 nM.
The compound `O=C1OC(c2ccccc2)=N[C@@]12C[C@H]2c1ccccc1` gave an inhibition at 10 µM in the experiment on Human betaherpesvirus 5 [5] of 85%. For the same compound, the inhibition in experiment [2] was 24%.
`CC1=N[C@@]2(C[C@@H]2c2ccccc2)C(=O)O1`: the figures for the inhibition in experiment [4] and in experiment [7] were 82% and 88%, respectively.
As for `COc1ccc([C@H]2C[C@@]23N=C(c2ccccc2)OC3=O)cc1`, the inhibition was found to be 35% in experiment [4], 64% in experiment [7] and 92% in experiment [8]. The compound also gave an IC50 in the experiment on Human betaherpesvirus 5 [1] of 200 nM.
The compound `CCOP(=O)(OCC)ON1C(=O)/C(=C/c2ccccc2)N=C1c1ccccc1` showed an inhibition at 10 µM in the experiment with Human betaherpesvirus 5 [5] of 20%. The inhibition in experiment [2] came to 5%.

In general, IC50 refers to the concentration that gives 50% inhibition. A lower IC50 goes with higher potency. In general, inhibition refers to the percentage by which the read-out fell short of the control. For orientation: Inhibition means the percentage by which the read-out fell short of the control. Low readings indicate a weak effect, high ones a strong effect.

Values taken from ChEMBL document CHEMBL1159165, “Novel, selective mechanism-based inhibitors of the herpes proteases” (Bioorg Med Chem Lett, 1996).
